Measured values as given in article PMC3747139 (PLoS ONE, 2013).
Read-outs that look alike come from different tables or passages of the source. Marks after values point to notes of the source that are not given here.

Tests used:
[1] = Cell count assay (trypan blue); format: cell-based; design: concentration or dose not given beside the values; details: human; for viability at 24 h: read-out: Number of viable cells after 24 h of ligand treatment; for viability at 48 h: read-out: Number of viable cells after 48 h of ligand treatment
Description: (§1) Normal and tumor cell lines were seeded at 20000–40000 cells/cm^2 with 0.2 mL/cm^2 media and incubated for 48 h at 37°C, 6% CO2, 95% relative humidity. […] After 24 h and 48 h of incubation, cells were washed with 300 µl PBS or 0.02% EDTA, trypsinized, followed by harvesting at 37°C. 200 µl cell suspension was transferred into 1.5 ml microcentrifuge tube. To the cell suspension, 300 µl PBS followed by 500 µl of 0.4% trypan blue solution was added. To get the homogenised solution, the microcentrifuge tube was gently tapped for 5 min, 20 µl of cell suspension was loaded in to a chamber of the haemocytometer.

[2] = system: HQF DNA [d(T2AG3)4]; experiment: SYBR Green melting study with HQF DNA; format: binding, human; details: melting temperature of HQF DNA (5 µM) in presence of 1 µM ligand
Description: When quadruplex DNA melts to form ssDNA structure, SG fluorescence intensity gradually reduces as SG has no binding to ssDNA. Each time, 5 µM of HQF DNA [d(T2AG3)4)], 5 µM of dsDNA (prepared by mixing equal concentration of poly-dA-dT and poly-dT-dA), 5 µM ssDNA ( poly dT alone) and 1 µM of each ligand was incubated at 4°C for 16 h, and used for melting studies. […] Affinity, stoichiometry and thermodynamic parameters for quadruplex-ligand complex were studied with 60 µM of ligand and 10 µM of HQF DNA using Microcal VP-ITC (Northampton, MA, USA). Ligand addition to G-quadruplex DNA was made every 180 seconds. Titration experiments were performed thrice and blank correction was made each time to minimize error.

[3] = system: MCF-7; experiment: Cell count assay (trypan blue); format: cell-based, human;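 as to Number of viable cells after 48 h of ligand treatment: each ligand tested at its own IC50 concentration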
Description: as §1

[4] = system: B16F10; experiment: Cell count assay (trypan blue); format: cell-based, human
Description: as §1

[5] = system: A549; experiment: Cell count assay (trypan blue); format: cell-based, human;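 as to Number of viable cells after 24 h of ligand treatment: each ligand tested at its own IC50 concentration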
Description: as §1

COc1ccc(-c2c(-c3ccccc3)nnn2CC2CCCCO2)cc1 (stereo not shown) [Ligand L14, 5-(4-Methoxyphenyl)-4-phenyl-1-((tetrahydro-2H-pyran-2-yl)methyl)-1H-1,2,3-triazole]
viability at 24 h ([1]; CRL-2115 cells (normal cell line), CRL-2115, 24 h): 80 to 90%
viability at 48 h ([1]; CRL-2115 cells (normal cell line), CRL-2115, 48 h): 80 to 90%
viability at 24 h ([1]; CRL-2120 cells (normal cell line), CRL-2120, 24 h): 80 to 90%
viability at 48 h ([1]; CRL-2120 cells (normal cell line), CRL-2120, 48 h): 80 to 90%
viability at 24 h ([1]; NCM-460 cells (normal cell line), NCM-460, 24 h): 80 to 90%
viability at 48 h ([1]; NCM-460 cells (normal cell line), NCM-460, 48 h): 50 to 60%
Tm [2]: 27 ^o C
Number of viable cells after 24 h of ligand treatment ([3]; MCF-7, 24 h): + (Viable cells in the range of 80%–90%)
Number of viable cells after 48 h of ligand treatment ([3]; MCF-7, 48 h): ++ (Viable cells in the range of 50%–60%)
Number of viable cells after 24 h of ligand treatment ([4]; B16F10, 24 h): + (Viable cells in the range of 80%–90%)
Number of viable cells after 48 h of ligand treatment ([4]; B16F10, 48 h): ++ (Viable cells in the range of 50%–60%)
Number of viable cells after 24 h of ligand treatment ([5]; A549, 24 h): + (Viable cells in the range of 80%–90%)
Number of viable cells after 48 h of ligand treatment ([5]; A549, 48 h): ++ (Viable cells in the range of 50%–60%)
